Test results published in US8129592B2, “Plant isoflavonoid hydroxylases and methods of use thereof” (The Samuel Roberts Noble Foundation, Inc., priority 2003, dated 2012).
Marks after values point to notes of the source that are not given here.

T1: I2′H (MtCYP81E7) (Medicago truncatula, UniProt Q6WNR0)
T1 construct: The open reading frame of MtCYP81E7 was amplified with forward primer; made in house; host or cells: Saccharomyces cerevisiae WAT11, vector YeDP60; microsomal fraction
T1 sequence (Q6WNR0 1-498): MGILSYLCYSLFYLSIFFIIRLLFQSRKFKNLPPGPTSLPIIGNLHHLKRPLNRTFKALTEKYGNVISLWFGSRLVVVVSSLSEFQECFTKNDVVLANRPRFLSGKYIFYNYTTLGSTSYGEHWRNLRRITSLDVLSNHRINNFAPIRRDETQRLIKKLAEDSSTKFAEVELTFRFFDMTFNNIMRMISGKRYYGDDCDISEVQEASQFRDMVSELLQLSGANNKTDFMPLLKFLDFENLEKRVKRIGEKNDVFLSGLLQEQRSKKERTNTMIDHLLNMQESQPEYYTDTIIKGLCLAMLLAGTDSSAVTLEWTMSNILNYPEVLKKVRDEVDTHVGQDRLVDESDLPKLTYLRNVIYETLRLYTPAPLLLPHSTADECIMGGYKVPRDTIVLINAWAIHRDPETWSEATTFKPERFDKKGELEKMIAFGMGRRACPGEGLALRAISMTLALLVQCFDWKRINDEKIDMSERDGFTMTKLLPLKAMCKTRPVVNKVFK

T2: I3′H (MtCYP81E9) (Medicago truncatula, UniProt Q6WNQ9)
T2 construct: made in house; host or cells: Saccharomyces cerevisiae WAT11, vector YeDP60; microsomal fraction
T2 sequence (Q6WNQ9 with tags, fused parts or gaps limits assumed): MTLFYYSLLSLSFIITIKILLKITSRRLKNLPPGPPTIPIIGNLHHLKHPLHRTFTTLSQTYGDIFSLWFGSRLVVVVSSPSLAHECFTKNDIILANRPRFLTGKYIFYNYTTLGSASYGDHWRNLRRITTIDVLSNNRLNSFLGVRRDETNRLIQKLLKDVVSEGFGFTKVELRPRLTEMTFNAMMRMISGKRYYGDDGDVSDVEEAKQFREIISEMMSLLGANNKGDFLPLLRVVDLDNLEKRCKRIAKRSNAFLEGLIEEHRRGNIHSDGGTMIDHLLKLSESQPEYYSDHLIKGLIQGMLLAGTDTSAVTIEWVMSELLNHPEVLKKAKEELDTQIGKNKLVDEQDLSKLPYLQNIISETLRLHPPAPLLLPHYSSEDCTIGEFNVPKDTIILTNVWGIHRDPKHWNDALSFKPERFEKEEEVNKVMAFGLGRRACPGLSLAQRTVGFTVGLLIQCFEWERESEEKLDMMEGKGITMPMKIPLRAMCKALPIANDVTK

T3: MtCYP81E8 (Medicago truncatula, UniProt Q6WNQ8)
T3 construct: The full length CYP81E8 cDNA was directly excised from its original clone; made in house; host or cells: Saccharomyces cerevisiae WAT11, vector YeDP60; microsomal fraction
T3 sequence (Q6WNQ8 1-499): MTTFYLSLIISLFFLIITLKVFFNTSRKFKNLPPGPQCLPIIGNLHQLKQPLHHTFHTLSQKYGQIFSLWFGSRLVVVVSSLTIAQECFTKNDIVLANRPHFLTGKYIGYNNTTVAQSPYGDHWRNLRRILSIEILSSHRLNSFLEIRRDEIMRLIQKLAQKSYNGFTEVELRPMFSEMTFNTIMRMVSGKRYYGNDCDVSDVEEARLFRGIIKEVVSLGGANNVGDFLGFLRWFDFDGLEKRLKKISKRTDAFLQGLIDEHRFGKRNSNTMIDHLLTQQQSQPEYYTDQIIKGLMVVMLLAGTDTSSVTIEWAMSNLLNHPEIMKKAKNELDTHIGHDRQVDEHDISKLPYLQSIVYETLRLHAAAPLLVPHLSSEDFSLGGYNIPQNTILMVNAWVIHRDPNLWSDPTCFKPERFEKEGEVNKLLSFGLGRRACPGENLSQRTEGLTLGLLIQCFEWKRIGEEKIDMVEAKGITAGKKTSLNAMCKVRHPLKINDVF

B1: I2′H (MtCYP81E7) (Medicago truncatula) (protein)
chain: T1 sequence (Q6WNR0 1-498)
notes: The open reading frame of MtCYP81E7 was amplified with forward primer; made in house; host or cells: Saccharomyces cerevisiae WAT11, vector YeDP60; microsomal fraction

Key:
[1] = target: T1, I2′H (MtCYP81E7); assay: Hydroxylase assay with yeast microsomes expressing recombinant MtCYP81E7 (I2′H); format: biochemical; details: for Substrate specificity of I2′H (MtCYP81E7), relative activity: 100% = biochanin A, a = sum of putative 2′ and/or 3′-hydroxylated products, ND = activities not detectable
Method: (§1) PCR products were digested with BamHI and KpnI and ligated into the yeast expression vector YeDP60 following BamHI/KpnI digestion. MtCYP81E8 was directly excised from the original clone in pBSK(+) by BamHI and KpnI and inserted into YeDP60. All constructs were sequenced to ensure that there were no PCR-introduced errors. […] After induction with 20% galactose for ˜18 h, yeast cells was harvested, weighed, and immediately processed for microsomal fractionation.
(§2) After incubation at ˜80 rpm for 30 to 40 min, spheroplasts were centrifuged down for 5 min, washed twice with Zymolyase buffer B, and then twice with phosphate buffer A (0.1 M potassium phosphate pH 8.0, 1 M sorbitol, 14 mM 2-mercaptoethanol). The spheroplasts were re-suspended in a minimum vol of phosphate buffer B (0.1 M potassium phosphate pH 8.0, 0.4 M sucrose, 14 mM β-mercaptoethanol, 1 mM PMSF and 1× […] (Roche Diagnostics GmbH, Mannheim, German), and 1 vol of glass beads (diameter at 0.45/0.50 mm) was added. Samples were vigorously vortexed at 4° C., with the quality of cell disruption checked under the microscope. The supernatant was then removed and the beads washed four times with phosphate buffer B. Supernatants were pooled and centrifuged at 12,000 g for 10 min; the resulting supernatant was then ultracentrifuged at 140,000 g for 90 min. The supernatant was discarded and the pellet washed briefly with phosphate buffer C (0.1 M potassium phosphate, pH 8.0, 0.4 M sucrose, 0.5 mM glutathione), and re-suspended in the same buffer plus 5% glycerol at about 12 mg total protein/ml. Protein was quantified using a Bio-Rad protein assay kit (Bio-Rad, Hercules, Calif.).
(§3) Hydroxylase assays were performed in phosphate buffer C in a total volume of 150 μl containing 2 mM NADPH, 40 μM isoflavone substrate and 40˜70 pmol P450 protein. […] The extracts were combined, evaporated under N2, re-suspended in 60 μl of methanol, and analyzed by HPLC or LC-MS. All assays to determine enzyme specificity were carried out in duplicate. For kinetic studies, the isoflavone concentration was varied at a fixed concentration of NADPH (2 mM), and kinetic constants calculated from initial rate data using Lineweaver-Burke double reciprocal plots. All kinetic analyses were carried out in triplicate.
(§4) Reaction products from enzyme assays (30 μl) were analyzed by HPLC.
(§5) Product identification was firstly based on comparisons of chromatographic behavior and UV spectra with authentic standards. Identifications were then confirmed by HPLC-MS, using a HP 1100 liquid chromatograph coupled to a Bruker Esquire Ion-Trap mass spectrometer equipped with an electrospray source. HPLC separation was achieved using a J. T. Baker Bakerbond reverse-phase column (C18, 5 μm, 4.6 mm×250 mm, J. T. Baker, Philipsberg, N.J.). Samples were eluted with the gradient described above but with 0.1% aqueous acetic acid replacing the 1% phosphoric acid. Ion charge control was set at 30,000 with a max acquire time of 100 ms. Mass spectra were recorded over a range of 50-2200 m/z.

[2] = target: T2, I3′H (MtCYP81E9); assay: Hydroxylase assay with yeast microsomes expressing recombinant MtCYP81E9 (I3′H); format: biochemical; details: for Substrate specificity of I3′H (MtCYP81E9), relative activity: 100% = biochanin A, a = sum of putative 2′ and/or 3′-hydroxylated products, b = sum of all the products, ND = activities not detectable
Method: as §1, §2, §3, §4, §5

[3] = target: T3, MtCYP81E8; assay: Hydroxylase assay with yeast microsomes expressing recombinant MtCYP81E8; format: biochemical; details: standard assay conditions, or at different pH values and NADPH concentrations
Method: as §1, §2, §3, §4

[4] = substrate: COc1ccc(-c2coc3cc(O)cc(O)c3c2=O)cc1; assay: Hydroxylase assay with yeast microsomes expressing recombinant MtCYP81E7 (I2′H); format: biochemical, Medicago truncatula; details: other: 2 mM NADPH and pH 8.0, 25.0 °C
Method: (§6) After incubation at ˜80 rpm for 30 to 40 min, spheroplasts were centrifuged down for 5 min, washed twice with Zymolyase buffer B, and then twice with phosphate buffer A (0.1 M potassium phosphate pH 8.0, 1 M sorbitol, 14 mM 2-mercaptoethanol). The spheroplasts were re-suspended in a minimum vol of phosphate buffer B (0.1 M potassium phosphate pH 8.0, 0.4 M sucrose, 14 mM β-mercaptoethanol, 1 mM PMSF and 1× protein inhibitor cocktail (Roche Diagnostics GmbH, Mannheim, German), and 1 vol of glass beads (diameter at 0.45/0.50 mm) was added. Samples were vigorously vortexed at 4° C., with the quality of cell disruption checked under the microscope. The supernatant was then removed and the beads washed four times with phosphate buffer B. Supernatants were pooled and centrifuged at 12,000 g for 10 min; the resulting supernatant was then ultracentrifuged at 140,000 g for 90 min. The supernatant was discarded and the pellet washed briefly with phosphate buffer C (0.1 M potassium phosphate, pH 8.0, 0.4 M sucrose, 0.5 mM glutathione), and re-suspended in the same buffer plus 5% glycerol at about 12 mg total protein/ml. Protein was quantified using a Bio-Rad protein assay kit (Bio-Rad, Hercules, Calif.).
(§7) Hydroxylase assays were performed in phosphate buffer C in a total volume of 150 μl containing 2 mM NADPH, 40 μM isoflavone substrate and 40˜70 pmol P450 protein. Reactions were incubated at 25° C. for 1.5 h (over which period the reactions were linear) with gentle shaking and stopped by extracting twice with 500 μl of ethyl acetate. The extracts were combined, evaporated under N2, re-suspended in 60 μl of methanol, and analyzed by HPLC or LC-MS. All assays to determine enzyme specificity were carried out in duplicate. For kinetic studies, the isoflavone concentration was varied at a fixed concentration of NADPH (2 mM), and kinetic constants calculated from initial rate data using Lineweaver-Burke double reciprocal plots. All kinetic analyses were carried out in triplicate.
(§8) Product identification was firstly based on comparisons of chromatographic behavior and UV spectra with authentic standards. Identifications were then confirmed by HPLC-MS, using a HP 1100 liquid chromatograph coupled to a Bruker Esquire Ion-Trap mass spectrometer equipped with an electrospray source. HPLC separation was achieved using a J. T. Baker Bakerbond reverse-phase column (C18, 5 μm, 4.6 mm×250 mm, J. T. Baker, Philipsberg, N.J.). […] Mass spectra were recorded over a range of 50-2200 m/z.

[5] = substrate: COc1ccc(-c2coc3cc(O)ccc3c2=O)cc1; assay: as above; format: biochemical, Medicago truncatula; details: other: 2 mM NADPH and pH 8.0, 25.0 °C
Method: as §6, §7, §8

Row | Molecule | Activity of MtI2′H with substrate (in words) [1] | Substrate specificity of I2′H (MtCYP81E7), relative activity ([1]; isoflavone 40 μM) | Activity of MtI3′H with substrate (in words) [2] | Substrate specificity of I3′H (MtCYP81E9), relative activity ([2]; isoflavone 40 μM) | further results
1 | COc1ccc(-c2coc3cc(O)ccc3c2=O)c(O)c1 [2′-Hydroxyformononetin] | negligible activity | 9.1%^a | more active | 39.34%^b | –
2 | COc1ccc(-c2coc3cc(O)ccc3c2=O)cc1O [3′-Hydroxyformononetin] | negligible activity | 4.7% | – | – | –
3 | COc1ccc(-c2coc3cc(O)cc(O)c3c2=O)cc1 [Biochanin A] | – | 100% | – | 100% | Activity corresponding to 100%, 2′-hydroxylation ([1]; isoflavone 40 μM, 2 mM NADPH): 53.8 pmol/pmol protein/h; Activity corresponding to 100%, 3′-hydroxylation ([2]; isoflavone 40 μM, 2 mM NADPH): 98.56 pmol pmol^−1 protein h^−1
4 | O=c1c(-c2ccc(O)cc2)coc2cc(O)ccc12 [Daidzein, 7,4′-dihydroxyisoflavone] | weak activity | 18.6%^a | low activity | 1.73%^a | –
5 | COc1ccc(-c2coc3cc(O)ccc3c2=O)cc1 [Formononetin, 7-hydroxy, 4′-methoxyisoflavone] | – | 37.2% | – | 50% | –
6 | O=c1c(-c2ccc(O)cc2)coc2cc(O)cc(O)c12 [Genistein, 5,7,4′-trihydroxyisoflavone] | weak activity | 10.2%^a | – | 19.13%^a | –
7 | COc1ccc2c(=O)c(-c3ccc(O)cc3)coc2c1 [Isoformononetin] | Neither enzyme hydroxylated | – | Neither enzyme hydroxylated | – | –
8 | COc1cc(O)c2c(=O)c(-c3ccc(O)cc3)coc2c1 [Prunetin] | Neither enzyme hydroxylated | – | Neither enzyme hydroxylated | – | –
9 | O=c1c(-c2ccc3c(c2)OCO3)coc2cc(O)ccc12 [Pseudobaptigenin] | active | 35% | low activity | 7.6%^a | –
10 | O=c1cc(-c2ccc(O)cc2)oc2cc(O)cc(O)c12 [apigenin] | – | – | – | – | Activity of recombinant MtCYP81E8 with substrate (in words) [3]: no activity
11 | O=C1C[C@@H](c2ccc(O)cc2)Oc2cc(O)ccc21 [liquiritigenin] | – | – | – | – | Activity of recombinant MtCYP81E8 with substrate (in words) [3]: no activity
12 | O=c1cc(-c2ccc(O)c(O)c2)oc2cc(O)cc(O)c12 [luteolin] | – | – | – | – | Activity of recombinant MtCYP81E8 with substrate (in words) [3]: no activity
13 | O=C1C[C@@H](c2ccc(O)cc2)Oc2cc(O)cc(O)c21 [narigenin] | – | – | – | – | Activity of recombinant MtCYP81E8 with substrate (in words) [3]: no activity
14 | NADPH | – | – | – | – | Km ([1]; read-out: apparent KM value of MtCYP81E7 for NADPH): ~0.17 µM
15 | B1 | – | – | – | – | Km [4]: 51 µM; kcat [4]: 0.033 s⁻¹; Km [5]: 67 µM; kcat [5]: 0.015 s⁻¹
